Results from EP4570798A1, “AROMATIC HETEROCYCLIC CYCLOHEXYL AMINOALKYL PIPERIDINE DERIVATIVE, PREPARATION METHOD AND USE THEREOF” (Jiangsu NHWA Pharmaceutical Co., Ltd, priority 2022, dated 2024).
Several values for one entry are separate records, joined by “and”; a condition that tells them apart may be missing. Identical values can stand only once. Counter-ions that a name gives are not always drawn.

Assays:
hERG potassium channel = hERG potassium channel (Homo sapiens, UniProt Q12809); assay: In vitro hERG experiment (whole-cell patch clamp); type: cell-based; conditions: for IC50: whole-cell patch clamp, tail current, room temperature; for hERG inhibition: functional activity lower than that of the pharmacodynamic target: hERG IC50 versus activity at pharmacodynamic target
Experimental: Extracellular fluid: 140 mM NaCl, 3.5 mM KCl, 1 mM MgCl2, 2 mM CaCl2, 10 mM Glucose, 10 mM HEPES, and 1.25 mM NaH2PO4, with the pH adjusted to 7.4 by NaOH.
Under an inverted microscope, recording electrodes were controlled by a glass electrode micromanipulator (micromanipulation) to contact with the cell. A negative voltage was applied to form a GΩ seal. After forming the GΩ seal, a rapid capacitance compensation was given. Under the continuous negative voltage, the cell membrane was ruptured to establish a whole-cell recording mode. In the whole-cell recording mode, a slow capacitance compensation was given, and the values of membrane capacitance and series resistance were recorded.
Voltage stimulation scheme for cellular hERG potassium current: the cell membrane clamping voltage was -80 mV; the voltage was first elevated from -80 mV to +30 mV, held for 2.5 s, and rapidly changed to and held at -50 mV for 4 s, thus exciting the hERG channel tail current. Data were acquired every 10 s. Leak current detection was performed at -50 mV.
The coverslip with seeded cells was placed in the recording chamber of the inverted microscope. Negative control and test compounds flowed through the recording chamber in an ascending order of concentration by gravity perfusion to quickly act on the cells. During the recording, the extracellular fluid was continuously circulated by a vacuum pump. The current detected in a cell in the negative control was used as the background for the cell. Each compound concentration was allowed to act for 5 min or until the current was stabilized. All experiments were performed at room temperature.
The current of each compound concentration was first normalized according to (peak tail current compound)/(peak tail current vehicle), and then the corresponding inhibition rate was calculated according to (1 - (peak tail current compound)/(peak tail current vehicle)). Basic statistics were calculated for each concentration, including mean, standard deviation (SD), standard error (SE), and replicates (n). […] Curve fitting and calculation of IC50 were performed by GraphPad Prism 5.0 software.

Dopamine D2L receptor = Dopamine D2L receptor (Homo sapiens, UniProt P14416); assay: In vitro dopamine D2L receptor function experiment (cAMP, forskolin-stimulated HEK293/D2L cells); conditions: for Emax: HEK293, read-out: D2L Emax
Experimental: • (1) Compound preparation: The test compounds and dopamine were diluted to a concentration of 200 nM for later use. • (2) Experimental buffer preparation: The 5× stimulation buffer was diluted to 1× with ddH2O, and IBMX was added to a final concentration of 0.5 mM. The mixture was mixed well for later use. • (3) The cells were digested with trypsin, and centrifugation was performed after the digestion was terminated. The cell pellet was resuspended in 10 mL of pre-warmed HBSS and centrifuged again. Then, 1 mL of stimulation buffer was added for resuspension, and 20 µL of the cell suspension was taken for cell counting. • (4) An appropriate amount of the cell suspension was taken and diluted to 0.4 × 10^6 cells/mL, and 5 µL of the diluted cell suspension was added to each well of a cell plate and centrifuged at 1000 rpm for 1 min. • (5) Compound dilution and transfer using bravo: The compounds were diluted 4-fold to obtain 8 concentration points in the compound plate. The diluted compounds in the whole plate were then transferred to a 384-well white plate using bravo and centrifuged at 1000 rpm for 1 min. • (6) The experimental plate was sealed and incubated at room temperature for 15 min. • (7) Forskolin, prepared with DMSO, was added at 25.1 nL/well using Tecan D300e, with a mother liquor concentration of 0.2 mM and a final concentration of 0.25 µM, followed by centrifugation at 1000 rpm for 1 min. • (8) The plate was sealed and incubated at room temperature for 45 min. • (9) cAMP standard curve preparation: A 4-fold serial dilution was performed to obtain 8 concentration points from a starting concentration of 2848 nM. Then, 10 µL of each dilution was taken and added to the experimental plate, with a maximum concentration of 712 nM. • (10) 5 µL of cAMP-d2 solution (stock solution diluted at 1:20 with lysis buffer) was added to the experimental plate, and the plate was centrifuged at 1000 rpm for 1 min. • (11) Then, 5 µL of Anti-cAMP-Cryptate solution (stock solution diluted at 1:20 with lysis buffer) was added to the experimental plate, and the plate was centrifuged at 1000 rpm for 1 min. • (12) The experimental plate was incubated at room temperature for 45 min and centrifuged at 1000 rpm for 1 min before reading. • (13) Plate reading was performed using Envision, with excitation light at 320 nm and emission lights at 620 nm and 665 nm. The derived data were analyzed, and the maximum activation rates Emax and EC50 of the compounds were calculated.

5-HT1A [1] = target: T1, 5-HT1A (Homo sapiens, UniProt P08908); assay: In vitro 5HT1A receptor function experiment (cAMP, forskolin-stimulated HEK293/5HT1A cells); type: cell-based; set-up: expressed in transfected cells; host or cells: HEK293; conditions: for EC50: forskolin 1 µM; for Emax: maximum activation rate
T1 sequence (P08908 1-422): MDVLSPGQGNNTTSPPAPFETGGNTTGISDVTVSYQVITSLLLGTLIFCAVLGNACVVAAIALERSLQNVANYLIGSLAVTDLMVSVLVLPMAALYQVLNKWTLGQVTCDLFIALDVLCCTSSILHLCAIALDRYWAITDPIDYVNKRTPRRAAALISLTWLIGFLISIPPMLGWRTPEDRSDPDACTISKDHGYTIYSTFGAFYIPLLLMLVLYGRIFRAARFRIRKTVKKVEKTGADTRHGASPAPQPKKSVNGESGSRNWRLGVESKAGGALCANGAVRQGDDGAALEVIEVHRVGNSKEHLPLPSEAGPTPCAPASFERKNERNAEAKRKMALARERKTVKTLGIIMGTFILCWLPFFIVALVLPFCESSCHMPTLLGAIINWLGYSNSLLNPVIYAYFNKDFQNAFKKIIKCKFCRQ
Experimental: 1.1.1 Cell information: HEK293/5HT1A: a stably transfected cell strain HEK293/5HT1A constructed by adopting 5HT1A receptor lentivirus to infect HEK293; growth culture medium: DMEM, 10% FBS, and 0.6 µg/mL puro; and cryopreservation culture medium: 70% culture medium, 20% FBS, and 10% DMSO.

[2] = In vitro liver microsome stability, CD-1 mouse; conditions: for CLint scaled at 1 µM / half-life at 1 µM / microsomal CLint at 1 µM: CD-1, mouse, liver microsomes, pH 7.4; for CLint(liver): CD-1 mouse liver microsomes
Experimental: (§1) • (1) Buffer preparation: 73.21 g of dipotassium hydrogen phosphate trihydrate and 10.78 g of potassium dihydrogen phosphate were dissolved in 4000 mL of ultrapure water. The pH of the solution was adjusted to within 7.40 ± 0.10 using 10% phosphoric acid or 1 M potassium hydroxide, resulting in a final concentration of 100 mM. • (2) Solution preparation and dilution: Stock solutions of the test compounds at a concentration of 10 mM were prepared in dimethyl sulfoxide (DMSO) and stored at 4 °C, and they were diluted into 100 µM working solutions with pure acetonitrile when used. A stock solution of the control compound testosterone at a concentration of 10 mM was prepared in DMSO and stored at -20 °C, and it was diluted into a 400 µM working solution with pure acetonitrile when used. • (3) Termination solution preparation: The termination solution was acetonitrile containing the internal standard buspirone. The prepared termination solution was stored in a refrigerator at 2-8 °C. • (4) Liver microsome solution preparation: Microsomes from various species (CD-1 mouse, SD rat, and human) were diluted into a 20× working solution using 100 mM potassium phosphate buffer. The final concentration of the microsomes in the reaction system was 0.5 mg/mL. • (5) Reduced nicotinamide adenine dinucleotide phosphate (NADPH) regeneration system preparation: Appropriate amounts of nicotinamide adenine dinucleotide phosphate (NADP), glucose-6-phosphate (G6P), magnesium chloride (MgCl2), and glucose-6-phosphate dehydrogenase (G6PDH) were weighed to prepare stock solutions at concentrations of 65.33 mM, 330 mM, 300 mM, and 250 Units/mL, respectively. The four stock solutions described above were each added to an appropriate amount of buffer, and the mixture was mixed well by gently inverting up and down. […] Several incubation plates were prepared and named T0, T5, T10, T20, T40, T60, PB60, and NCF60, respectively. […] The NCF60 plate was incubated for 60 min with potassium phosphate buffer replacing the NADPH regeneration system solution. The PB60 plate was incubated for 60 min with potassium phosphate buffer replacing the liver microsomes. Samples under all conditions were prepared in triplicate.
(§2) 2 µL of the test compound or control compound and 100 µL of microsome working solution (containing 1 mg/mL liver microsome protein) were added to each of the T0, T5, T10, T20, T40, T60, and NCF60 plates, and 2 µL of the test compound and 100 µL of potassium phosphate buffer were added to the PB60 plate. The plates described above were then pre-incubated in a 37 °C water bath for about 5 min.
(§3) After the pre-incubation, 600 µL of the termination solution was first added to the T0 samples, followed by the addition of 98 µL of NADPH regeneration system working solution. The plate was sealed, shaken, and then allowed to wait for simultaneous processing with subsequent samples. Except for the NCF60 plate where 98 µL of potassium phosphate buffer was added to each sample well, 98 µL of NADPH regeneration system working solution was added to each sample well of the other incubation plates to initiate the reaction. In the reaction system, the final concentrations of the test compound and the control compound were 1 µM and 4 µM, respectively, the concentration of the liver microsomes was 0.5 mg/mL, and the final concentrations of DMSO and acetonitrile were 0.01% (v/v) and 0.99% (v/v), respectively.
(§4) After incubation for an appropriate time (such as 5, 10, 20, 40, and 60 min), 600 µL of the termination solution containing the internal standard was added to each test compound sample and control compound well to terminate the reaction. The plates were sealed, shaken well, and then centrifuged at 4000 ×g and 4 °C for 15 min.

Dopamine D3 receptor = target: T2, Dopamine D3 receptor (Homo sapiens, UniProt P35462); assay: In vitro dopamine D3 receptor function experiment (CHO-K1/D3/CRE reporter, chemiluminescence); type: cell-based; conditions: for EC50: forskolin 0.4 µM; for Emax: maximum activation rate
T2 construct: expressed in transfected cells; host or cells: CHO-K1
Experimental: 3.1.1 Cell information: CHO-K1/D3/CRE constructed by referring to the method in Example 5 of CN114369578A.
The first day: cell plating • (1) The cultured cells were digested with trypsin, and after the digestion was terminated with culture medium, the cell suspension was transferred to a centrifuge tube and centrifuged at 750 rpm for 5 min. • (2) The supernatant was discarded, and the pellet was resuspended in an appropriate amount of plating medium.
The following day: experimental detection • (1) The test compounds were diluted to 0.2 mM with DMSO, and the reference compound dopamine was diluted to 0.02 mM. • (2) Compound dilution (4-fold dilution at 8 concentration points) was performed using Bravo, with the starting concentrations of the test compounds and the reference compound being 5 µM and 500 nM, respectively. […] The program selected was an ultrasensitive chemiluminescence detection program.

[3] = In vitro liver microsome stability, human; conditions: for CLint(liver): Human liver microsomes; for CLint scaled at 1 µM / half-life at 1 µM / microsomal CLint at 1 µM: human, liver microsomes, pH 7.4
Experimental: as §1, §2, §3, §4

[4] = In vitro liver microsome stability, SD rat; conditions: for CLint(liver): SD rat liver microsomes; for CLint scaled at 1 µM / half-life at 1 µM / microsomal CLint at 1 µM: SD, rat, liver microsomes, pH 7.4
Experimental: as §1, §2, §3, §4

[5] = test system: tacrine-induced jaw tremors in rats; assay: Tacrine-induced jaw tremor behavior in rats; type: in vivo, Sprague Dawley rats; conditions: for Inhibition of tacrine-induced jaw tremors in rats: compared to the model group; for Minimum effective dose: tacrine-induced jaw tremor in rats, compared with rotigotine
Experimental: Test compounds: The free bases of Examples 28, 32, and 33 in the present invention, which were self-prepared.
Positive control compound: Rotigotine.
Molding drug: Tacrine, SIGMA, A3773-1G.
Vehicle: Normal saline, Cisen Pharmaceutical Co., Ltd., 2111060723.
Sprague Dawley rats, male, 10/group, Shanghai Slac Laboratory Animal Co., Ltd.
Drug preparation: The test compound was taken, added to the vehicle, and subjected to ultrasonication.
Administration route and method: Administration was performed by intraperitoneal injection.
Administration frequency and duration: single administration.
The rats were stratified according to body weight and then randomly divided into a model group, an administration group, and a control group. The rats were acclimatized for three days before the experiment. On the day of the experiment, the vehicle or drug was first injected intraperitoneally, followed by an intraperitoneal injection of tacrine at a dose of 5 mg/kg (body weight) after 60 min. After administration, the rats were placed in a transparent observation box, and the jaw tremor counting was started 10 min later. The continuous counting duration was 5 min, and the jaw tremor frequency in the rats within 5 min was recorded.
The experimental data were expressed as x ± SEM. Inhibition rate (%) = 100% × (jaw tremor frequency in the rats of the model group - jaw tremor frequency in the rats of the administration group)/jaw tremor frequency in the rats of the model group, where *: p < 0.05, **: p < 0.01, and ***: p < 0.001 vs vehicle.

5-HT1A [6] = target: T1, 5-HT1A; conditions: literature value; cited from earlier work
[7] = 1 mg/kg, 3 mg/kg, and 10 mg/kg, intraperitoneal, single administration, free base

Dopamine D2L receptor, sequence (P14416 whole entry): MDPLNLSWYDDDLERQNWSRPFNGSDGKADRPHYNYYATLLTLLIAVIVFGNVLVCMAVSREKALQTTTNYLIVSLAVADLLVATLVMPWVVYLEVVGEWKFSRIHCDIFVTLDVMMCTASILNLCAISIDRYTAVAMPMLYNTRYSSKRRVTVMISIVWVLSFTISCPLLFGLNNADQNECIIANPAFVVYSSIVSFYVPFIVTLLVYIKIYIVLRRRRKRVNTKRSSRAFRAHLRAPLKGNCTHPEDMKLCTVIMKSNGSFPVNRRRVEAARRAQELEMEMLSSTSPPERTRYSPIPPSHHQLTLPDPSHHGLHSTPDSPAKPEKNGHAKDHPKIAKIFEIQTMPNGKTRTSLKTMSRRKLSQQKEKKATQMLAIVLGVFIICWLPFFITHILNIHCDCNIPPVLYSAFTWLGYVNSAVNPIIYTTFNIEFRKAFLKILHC
hERG potassium channel, sequence (Q12809 whole entry): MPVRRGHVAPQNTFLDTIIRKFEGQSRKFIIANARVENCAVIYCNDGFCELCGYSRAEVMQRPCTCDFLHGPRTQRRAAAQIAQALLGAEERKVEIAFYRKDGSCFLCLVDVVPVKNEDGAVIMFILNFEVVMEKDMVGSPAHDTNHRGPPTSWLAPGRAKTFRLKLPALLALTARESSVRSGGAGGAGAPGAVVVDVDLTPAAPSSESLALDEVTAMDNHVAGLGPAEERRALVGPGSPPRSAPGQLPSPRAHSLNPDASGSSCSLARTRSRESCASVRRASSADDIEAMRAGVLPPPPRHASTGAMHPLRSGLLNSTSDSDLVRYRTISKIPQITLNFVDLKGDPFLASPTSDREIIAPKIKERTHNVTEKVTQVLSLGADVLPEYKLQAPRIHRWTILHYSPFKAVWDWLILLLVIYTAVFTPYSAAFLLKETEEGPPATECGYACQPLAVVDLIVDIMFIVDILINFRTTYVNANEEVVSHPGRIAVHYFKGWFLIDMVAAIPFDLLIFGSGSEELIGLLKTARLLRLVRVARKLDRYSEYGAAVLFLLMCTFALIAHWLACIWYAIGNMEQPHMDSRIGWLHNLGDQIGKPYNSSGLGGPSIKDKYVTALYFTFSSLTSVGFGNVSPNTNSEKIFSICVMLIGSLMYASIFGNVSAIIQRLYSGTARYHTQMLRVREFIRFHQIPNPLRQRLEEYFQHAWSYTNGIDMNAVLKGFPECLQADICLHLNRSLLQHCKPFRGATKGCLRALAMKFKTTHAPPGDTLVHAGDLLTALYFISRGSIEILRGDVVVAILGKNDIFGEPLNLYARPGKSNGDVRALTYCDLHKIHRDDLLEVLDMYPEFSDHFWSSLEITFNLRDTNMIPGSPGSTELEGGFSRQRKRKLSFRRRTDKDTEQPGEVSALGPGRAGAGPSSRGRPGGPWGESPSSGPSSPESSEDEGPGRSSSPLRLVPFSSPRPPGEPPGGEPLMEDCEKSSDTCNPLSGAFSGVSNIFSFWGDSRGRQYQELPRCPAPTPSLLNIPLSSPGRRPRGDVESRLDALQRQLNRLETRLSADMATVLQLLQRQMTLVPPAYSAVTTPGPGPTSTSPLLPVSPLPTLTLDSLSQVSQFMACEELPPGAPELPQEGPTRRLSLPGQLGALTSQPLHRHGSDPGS
T2 sequence (P35462 whole entry, species assumed): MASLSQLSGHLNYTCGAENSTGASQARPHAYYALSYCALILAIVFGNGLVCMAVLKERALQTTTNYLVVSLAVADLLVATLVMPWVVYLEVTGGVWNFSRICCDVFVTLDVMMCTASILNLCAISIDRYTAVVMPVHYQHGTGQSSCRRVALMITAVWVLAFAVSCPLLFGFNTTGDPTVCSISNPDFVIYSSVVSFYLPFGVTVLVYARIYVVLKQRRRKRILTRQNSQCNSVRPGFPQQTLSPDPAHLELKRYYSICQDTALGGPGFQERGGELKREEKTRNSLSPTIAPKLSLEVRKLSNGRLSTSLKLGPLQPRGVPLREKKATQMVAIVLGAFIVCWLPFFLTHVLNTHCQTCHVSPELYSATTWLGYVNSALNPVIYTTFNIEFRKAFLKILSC

| SMILES | IC50 (hERG potassium channel) | EC50 (Dopamine D2L receptor) [nM] | Emax (Dopamine D2L receptor) [%] | EC50 (5-HT1A [1]) [nM] | Emax (5-HT1A [1]) [%] | CLint scaled at 1 µM [2] [mL/min/kg] | microsomal CLint at 1 µM [2] [µL/min/mg] | CLint(liver) [2] [mL/min/K g] | EC50 (Dopamine D3 receptor) [nM] | Emax (Dopamine D3 receptor) [%] | CLint(liver) [3] [mL/min/K g] | CLint scaled at 1 µM [3] [mL/min/kg] | microsomal CLint at 1 µM [3] [µL/min/mg] | CLint(liver) [4] [mL/min/K g] | CLint scaled at 1 µM [4] [mL/min/kg] | half-life at 1 µM [4] [h] | microsomal CLint at 1 µM [4] [µL/min/mg] | Inhibition of tacrine-induced jaw tremors in rats [5, 7] | Minimum effective dose [5] | also measured |
| --- | --- | --- | --- | --- | --- | --- | --- | --- | --- | --- | --- | --- | --- | --- | --- | --- | --- | --- | --- | --- |
| CCCN(CC1CCN(C(=O)OC)CC1)[C@@H]1CCc2nc(N)sc2C1 (stereo in doubt) [Comparative Example 3, Methyl (R)-4-(((2-amino-4,5,6,7-tetrahydrobenzo[d]thiazol-6-yl)(propyl)amino)methyl)piperidine-1-carboxylate hydrochloride, reference compound] | 5100 nM | 0.95 | 112 | 203 | 97 | – | – | – | – | – | – | – | – | – | – | – | – | – | – | – |
| CCCN(CCN1CCN(c2cccc(Cl)c2Cl)CC1)[C@H]1CCc2nc(N)sc2C1 [Comparative Example 1, (S)-N^6-(2-(4-(2,3-Dichlorophenyl)piperazin-1-yl)ethyl)-N^6-propyl-4,5,6,7-tetrahydrobenzo[d]thiazole-2,6-diamine hydrochloride, reference compound] | – | 0.25 | 101 | 203 | 99.1 | – | – | – | – | – | – | – | – | – | – | – | – | – | – | – |
| CCCN(CC1CCN(C(=O)OC)CC1)C1CCc2nc(N)sc2C1 (stereo not shown) [Comparative Example 2, Methyl 4-(((2-amino-4,5,6,7-tetrahydrobenzo[d]thiazol-6-yl)(propyl)amino)methyl)piperidine-1-carboxylate hydrochloride, reference compound] | 4700 nM | 1.68 | 112 | 247 | 95.4 | – | – | – | – | – | – | – | – | – | – | – | – | – | – | – |
| CCCN(CC1CCN(C(=O)c2ccccc2)CC1)[C@H]1CCc2nc(N)sc2C1 [Example 17, (S)-(4-(((2-Amino-4,5,6,7-tetrahydrobenzo[d]thiazol-6-yl)(propyl)amino)methyl)piperidin-1-yl)(phenyl)methanone] | – | – | – | 51.6 | 114 | 38.6 to 210 | 17.4 | 68.8 | 1.1 | 109 | 27.7 | 8.9 to 48.3 | 30.8 | 76.9 | 23.7 to 129 | 0.54 | 42.7 | – | – | half-life at 1 µM [2]: 1.33 h; half-life at 1 µM [3]: 0.75 h |
| CCCN(CC1CCN(C(=O)c2cnn(C)c2)CC1)[C@H]1CCc2nc(N)sc2C1 [Example 28, (S)-(4-(((2-Amino-4,5,6,7-tetrahydrobenzo[d]thiazol-6-yl)(propyl)amino)methyl)piperidin-1-yl)(1-methyl-1H-pyrazol-4-yl)methanone] | 20000 nM and 23300 nM | – | – | 122 | 103 | < 38.6 | 13.9 | 13.4 | – | – | 1.0 | < 8.9 | 1.1 | 2.7 | < 23.7 | 14.8 | 2.8 | significantly inhibited | lower than that of the positive control drug | half-life at 1 µM [2]: 6.57 h; half-life at 1 µM [3]: 19.7 h |
| CCCN(CC1CCN(C(=O)N(C)C)CC1)[C@H]1CCc2nc(N)sc2C1 [Example 32, (S)-4-(((2-Amino-4,5,6,7-tetrahydrobenzo[d]thiazol-6-yl)(propyl)amino)methyl)-N,N-dimethylpiperidine-1-carboxamide] | 20000 nM and 17800 nM | – | – | 25.7 | 102 | 38.6 to 210 | 11.5 | 45.5 | 1.3 | 120 | 10.3 | 8.9 to 48.3 | 11.5 | 38.5 | 23.7 to 129 | 1.08 | 21.4 | significantly inhibited | lower than that of the positive control drug | hERG inhibition: functional activity lower than that of the pharmacodynamic target (hERG potassium channel): ≥ 1000 fold |
| CCCN(CC1CCN(C(=O)N2CCOCC2)CC1)[C@H]1CCc2nc(N)sc2C1 [Example 33, (S)-(4-(((2-Amino-4,5,6,7-tetrahydrobenzo[d]thiazol-6-yl)(propyl)amino)methyl)piperidin-1-yl)(morpholino)methanone] | 20000 nM and 20200 nM | – | – | 162 | 92.7 | 38.6 to 210 | 12.6 | 50.0 | 1.1 | 107 | 2.6 | < 8.9 | 2.9 | 27.3 | 23.7 to 129 | 1.52 | 15.2 | significantly inhibited | lower than that of the positive control drug | hERG inhibition: functional activity lower than that of the pharmacodynamic target (hERG potassium channel): ≥ 1000 fold |
| Cc1ccc(CNCC2(F)CCN(C(=O)c3ccc(F)c(Cl)c3)CC2)nc1 [NLX-112] | – | – | – | – | – | – | – | – | – | – | – | – | – | – | – | – | – | – | – | 5-HT1A Emax (5-HT1A [6]): 84% |
| CCCN(CCc1cccs1)[C@H]1CCc2c(O)cccc2C1 [rotigotine, Rotigotine, reference compound] | – | – | – | – | – | – | – | – | – | – | – | – | – | – | – | – | – | – | – | Inhibition of tacrine-induced jaw tremors in rats ([5]; 10 mg/kg, positive control): significantly inhibited |
